Reference: ChEMBL document CHEMBL4507329, “Data for DCP probe BTZO-1” (2021)

Assays:
[1] = target: T1, Macrophage migration inhibitory factor (Homo sapiens) (UniProt P14174); test: ARE-Luc Reporter Assay (Activation of ARE (antioxidant response element)-mediated cytoprotective gene expression)
T1 sequence (whole entry): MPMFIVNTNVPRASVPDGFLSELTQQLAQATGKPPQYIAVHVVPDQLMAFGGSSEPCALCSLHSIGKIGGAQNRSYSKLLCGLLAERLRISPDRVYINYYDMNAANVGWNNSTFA

[2] = test system: Tyrosine-protein kinase ABL1 (Homo sapiens), P00519 [F317I]; details: Compound concentration 1000.0 nM
[3] = target: Activin receptor type-2A (Homo sapiens) (UniProt P27037); details: Compound concentration 1000.0 nM
[4] = target: Cytoplasmic tyrosine-protein kinase BMX (Homo sapiens) (UniProt P51813); details: Compound concentration 1000.0 nM
[5] = target: Serine/threonine-protein kinase BRSK2 (Homo sapiens) (UniProt Q8IWQ3); details: Compound concentration 1000.0 nM
[6] = target: Mitotic checkpoint serine/threonine-protein kinase BUB1 (Homo sapiens) (UniProt O43683); details: Compound concentration 1000.0 nM
[7] = target: Calcium/calmodulin-dependent protein kinase type 1D (Homo sapiens) (UniProt Q8IU85); details: Compound concentration 1000.0 nM
[8] = target: Calcium/calmodulin-dependent protein kinase type II subunit beta (Homo sapiens) (UniProt Q13554); details: Compound concentration 1000.0 nM
[9] = target: Peripheral plasma membrane protein CASK (Homo sapiens) (UniProt O14936); details: Compound concentration 1000.0 nM
[10] = target: Cyclin-dependent kinase 13 (Homo sapiens) (UniProt Q14004); details: Compound concentration 1000.0 nM
[11] = target: Casein kinase I isoform gamma-1 (Homo sapiens) (UniProt Q9HCP0); details: Compound concentration 1000.0 nM
[12] = target: Casein kinase II subunit alpha' (Homo sapiens) (UniProt P19784); details: Compound concentration 1000.0 nM
Casein kinase II subunit alpha' (Homo sapiens), sequence (P19784 whole entry, looked up): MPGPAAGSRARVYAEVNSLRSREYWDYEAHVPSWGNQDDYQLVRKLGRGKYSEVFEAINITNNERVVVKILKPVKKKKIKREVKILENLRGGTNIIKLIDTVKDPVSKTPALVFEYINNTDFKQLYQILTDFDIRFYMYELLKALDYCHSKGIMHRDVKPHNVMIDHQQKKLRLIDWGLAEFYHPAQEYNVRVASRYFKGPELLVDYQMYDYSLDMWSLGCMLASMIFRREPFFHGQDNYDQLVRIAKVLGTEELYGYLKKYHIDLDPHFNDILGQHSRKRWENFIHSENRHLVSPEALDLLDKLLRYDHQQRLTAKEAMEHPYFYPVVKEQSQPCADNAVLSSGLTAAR

[13] = target: Mitogen-activated protein kinase kinase kinase 12 (Homo sapiens) (UniProt Q12852); details: Compound concentration 1000.0 nM
Mitogen-activated protein kinase kinase kinase 12 (Homo sapiens), sequence (Q12852 whole entry): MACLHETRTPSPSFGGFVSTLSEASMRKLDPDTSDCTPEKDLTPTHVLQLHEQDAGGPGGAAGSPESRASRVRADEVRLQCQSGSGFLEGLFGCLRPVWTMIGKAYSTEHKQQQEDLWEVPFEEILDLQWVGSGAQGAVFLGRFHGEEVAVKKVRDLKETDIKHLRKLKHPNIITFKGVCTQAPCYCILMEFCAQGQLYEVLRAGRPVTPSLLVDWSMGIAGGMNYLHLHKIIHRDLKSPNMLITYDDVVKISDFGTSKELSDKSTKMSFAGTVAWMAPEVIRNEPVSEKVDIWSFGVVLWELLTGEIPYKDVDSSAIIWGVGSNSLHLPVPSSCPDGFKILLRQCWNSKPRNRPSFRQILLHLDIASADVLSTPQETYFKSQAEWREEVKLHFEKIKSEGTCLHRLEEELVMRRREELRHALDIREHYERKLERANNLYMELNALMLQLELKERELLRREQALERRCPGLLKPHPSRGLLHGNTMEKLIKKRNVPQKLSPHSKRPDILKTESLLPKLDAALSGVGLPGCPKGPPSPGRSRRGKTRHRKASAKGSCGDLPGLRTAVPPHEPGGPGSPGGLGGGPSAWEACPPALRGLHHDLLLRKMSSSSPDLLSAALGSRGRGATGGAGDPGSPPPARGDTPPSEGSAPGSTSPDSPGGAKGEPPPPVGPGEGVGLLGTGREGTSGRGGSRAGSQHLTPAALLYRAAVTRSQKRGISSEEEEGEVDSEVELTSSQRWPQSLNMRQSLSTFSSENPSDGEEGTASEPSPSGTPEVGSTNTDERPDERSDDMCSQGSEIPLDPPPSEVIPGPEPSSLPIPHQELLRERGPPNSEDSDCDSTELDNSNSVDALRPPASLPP

[14] = target: Myotonin-protein kinase (Homo sapiens) (UniProt Q09013); details: Compound concentration 1000.0 nM
[15] = target: Ephrin type-A receptor 8 (Homo sapiens) (UniProt P29322); details: Compound concentration 1000.0 nM
Ephrin type-A receptor 8 (Homo sapiens), sequence (P29322 whole entry): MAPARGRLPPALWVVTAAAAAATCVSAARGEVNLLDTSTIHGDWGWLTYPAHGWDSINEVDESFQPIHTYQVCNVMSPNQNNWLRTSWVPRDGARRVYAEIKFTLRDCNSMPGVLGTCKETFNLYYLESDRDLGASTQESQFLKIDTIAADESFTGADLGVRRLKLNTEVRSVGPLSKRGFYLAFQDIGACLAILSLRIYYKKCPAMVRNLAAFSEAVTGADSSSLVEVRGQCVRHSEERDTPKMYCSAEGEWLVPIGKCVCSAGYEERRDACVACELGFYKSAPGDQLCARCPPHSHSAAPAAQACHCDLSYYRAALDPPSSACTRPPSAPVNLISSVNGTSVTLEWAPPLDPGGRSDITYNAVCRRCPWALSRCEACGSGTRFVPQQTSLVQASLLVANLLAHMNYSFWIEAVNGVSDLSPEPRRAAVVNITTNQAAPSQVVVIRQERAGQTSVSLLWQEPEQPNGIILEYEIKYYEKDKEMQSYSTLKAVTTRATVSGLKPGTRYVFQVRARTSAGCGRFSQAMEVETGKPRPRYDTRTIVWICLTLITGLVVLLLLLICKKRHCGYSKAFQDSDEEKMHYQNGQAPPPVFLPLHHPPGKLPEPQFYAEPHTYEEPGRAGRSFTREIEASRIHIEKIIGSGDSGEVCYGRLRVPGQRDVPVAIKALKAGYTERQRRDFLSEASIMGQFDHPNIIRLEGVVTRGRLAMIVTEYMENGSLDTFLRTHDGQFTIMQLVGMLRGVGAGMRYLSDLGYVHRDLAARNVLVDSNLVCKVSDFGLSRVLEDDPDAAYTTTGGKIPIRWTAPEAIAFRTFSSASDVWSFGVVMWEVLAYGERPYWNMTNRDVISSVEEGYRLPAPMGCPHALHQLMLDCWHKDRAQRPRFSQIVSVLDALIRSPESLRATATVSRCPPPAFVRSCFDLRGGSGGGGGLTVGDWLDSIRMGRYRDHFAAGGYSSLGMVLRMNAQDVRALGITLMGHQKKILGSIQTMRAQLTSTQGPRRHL

[16] = test system: Receptor-type tyrosine-protein kinase FLT3 (Homo sapiens), P36888 [UNDEFINED MUTATION]; details: Compound concentration 1000.0 nM
[17] = test system: Receptor-type tyrosine-protein kinase FLT3 (Homo sapiens), P36888 [K663Q]; details: Compound concentration 1000.0 nM
[18] = target: Cyclin-G-associated kinase (Homo sapiens) (UniProt O14976); details: Compound concentration 1000.0 nM
Cyclin-G-associated kinase (Homo sapiens), sequence (O14976 whole entry): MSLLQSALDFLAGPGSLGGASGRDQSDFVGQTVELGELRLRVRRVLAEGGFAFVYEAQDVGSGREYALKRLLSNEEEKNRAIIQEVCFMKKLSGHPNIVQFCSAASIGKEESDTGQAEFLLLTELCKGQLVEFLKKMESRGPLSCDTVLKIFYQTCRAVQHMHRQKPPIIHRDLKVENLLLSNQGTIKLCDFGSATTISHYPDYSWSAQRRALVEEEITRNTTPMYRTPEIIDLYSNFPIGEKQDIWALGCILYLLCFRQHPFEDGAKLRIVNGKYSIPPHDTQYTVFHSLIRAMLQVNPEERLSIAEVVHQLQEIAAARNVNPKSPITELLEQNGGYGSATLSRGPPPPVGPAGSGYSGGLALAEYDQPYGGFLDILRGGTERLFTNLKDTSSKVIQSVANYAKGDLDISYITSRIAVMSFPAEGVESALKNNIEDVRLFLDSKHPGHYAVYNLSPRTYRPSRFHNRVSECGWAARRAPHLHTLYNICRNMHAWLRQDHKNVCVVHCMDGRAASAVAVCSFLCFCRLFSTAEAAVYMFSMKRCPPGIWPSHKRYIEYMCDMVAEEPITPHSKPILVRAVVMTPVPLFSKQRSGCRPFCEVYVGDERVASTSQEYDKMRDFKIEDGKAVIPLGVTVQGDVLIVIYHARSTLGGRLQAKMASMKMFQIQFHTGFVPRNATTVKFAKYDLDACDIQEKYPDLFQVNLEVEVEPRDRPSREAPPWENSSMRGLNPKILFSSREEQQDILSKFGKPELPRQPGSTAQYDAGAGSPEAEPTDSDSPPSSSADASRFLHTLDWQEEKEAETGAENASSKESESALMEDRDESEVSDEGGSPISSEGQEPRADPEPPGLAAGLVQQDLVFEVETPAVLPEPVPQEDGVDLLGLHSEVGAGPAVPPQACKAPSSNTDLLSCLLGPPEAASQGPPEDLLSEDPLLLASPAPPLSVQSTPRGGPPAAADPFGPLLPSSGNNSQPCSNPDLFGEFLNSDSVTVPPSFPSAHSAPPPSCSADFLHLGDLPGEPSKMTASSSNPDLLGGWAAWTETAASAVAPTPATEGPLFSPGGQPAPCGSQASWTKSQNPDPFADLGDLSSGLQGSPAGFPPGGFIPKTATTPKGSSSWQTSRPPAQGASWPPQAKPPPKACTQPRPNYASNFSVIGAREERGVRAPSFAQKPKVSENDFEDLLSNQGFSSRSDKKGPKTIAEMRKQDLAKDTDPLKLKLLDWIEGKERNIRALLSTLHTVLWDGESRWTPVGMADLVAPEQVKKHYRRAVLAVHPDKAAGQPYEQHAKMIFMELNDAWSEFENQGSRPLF

[19] = target: Homeodomain-interacting protein kinase 1 (Homo sapiens) (UniProt Q86Z02); details: Compound concentration 1000.0 nM
[20] = target: Homeodomain-interacting protein kinase 3 (Homo sapiens) (UniProt Q9H422); details: Compound concentration 1000.0 nM
[21] = target: LIM domain kinase 1 (Homo sapiens) (UniProt P53667); details: Compound concentration 1000.0 nM
[22] = target: Serine/threonine-protein kinase MARK1 (Homo sapiens) (UniProt Q9P0L2); details: Compound concentration 1000.0 nM
[23] = target: Dual specificity mitogen-activated protein kinase kinase 2 (Homo sapiens) (UniProt P36507); details: Compound concentration 1000.0 nM
[24] = target: Platelet-derived growth factor receptor beta (Homo sapiens) (UniProt P09619); details: Compound concentration 1000.0 nM
[25] = target: Phosphatidylinositol 4,5-bisphosphate 3-kinase catalytic subunit alpha isoform (Homo sapiens) (UniProt P42336); details: Compound concentration 1000.0 nM
[26] = test system: Phosphatidylinositol 4,5-bisphosphate 3-kinase catalytic subunit alpha isoform (Homo sapiens), P42336 [H1047L]; details: Compound concentration 1000.0 nM
[27] = target: Phosphatidylinositol 4,5-bisphosphate 3-kinase catalytic subunit beta isoform (Homo sapiens) (UniProt P42338); details: Compound concentration 1000.0 nM
[28] = target: Protein kinase C eta type (Homo sapiens) (UniProt P24723); details: Compound concentration 1000.0 nM
[29] = target: cAMP-dependent protein kinase catalytic subunit PRKX (Homo sapiens) (UniProt P51817); details: Compound concentration 1000.0 nM
[30] = target: Ribosomal protein S6 kinase alpha-6 (Homo sapiens) (UniProt Q9UK32); details: Compound concentration 1000.0 nM
[31] = target: Serine/threonine-protein kinase Sgk1 (Homo sapiens) (UniProt O00141); details: Compound concentration 1000.0 nM
[32] = target: SNF-related serine/threonine-protein kinase (Homo sapiens) (UniProt Q9NRH2); details: Compound concentration 1000.0 nM
[33] = target: SRSF protein kinase 2 (Homo sapiens) (UniProt P78362); details: Compound concentration 1000.0 nM
SRSF protein kinase 2 (Homo sapiens), sequence (P78362 whole entry, looked up): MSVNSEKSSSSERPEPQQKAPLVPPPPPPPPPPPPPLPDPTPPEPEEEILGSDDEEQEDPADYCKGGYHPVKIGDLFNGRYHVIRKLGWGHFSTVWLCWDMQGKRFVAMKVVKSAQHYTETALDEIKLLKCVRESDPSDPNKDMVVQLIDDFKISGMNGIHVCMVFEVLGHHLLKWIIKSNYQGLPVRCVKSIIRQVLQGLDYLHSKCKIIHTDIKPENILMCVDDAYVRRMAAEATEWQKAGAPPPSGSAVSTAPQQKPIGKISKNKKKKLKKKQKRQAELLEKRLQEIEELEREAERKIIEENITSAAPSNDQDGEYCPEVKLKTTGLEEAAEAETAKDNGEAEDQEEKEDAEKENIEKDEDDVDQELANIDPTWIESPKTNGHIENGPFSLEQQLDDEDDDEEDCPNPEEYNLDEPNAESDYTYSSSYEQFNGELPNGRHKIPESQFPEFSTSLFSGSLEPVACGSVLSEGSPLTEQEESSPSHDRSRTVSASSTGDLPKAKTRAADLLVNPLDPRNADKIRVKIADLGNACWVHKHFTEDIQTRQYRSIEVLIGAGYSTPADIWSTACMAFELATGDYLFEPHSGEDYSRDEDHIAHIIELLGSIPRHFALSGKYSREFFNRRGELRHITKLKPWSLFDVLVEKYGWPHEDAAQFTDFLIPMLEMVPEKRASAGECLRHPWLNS

[34] = target: Tyrosine-protein kinase Tec (Homo sapiens) (UniProt P42680); details: Compound concentration 1000.0 nM
[35] = target: TGF-beta receptor type-2 (Homo sapiens) (UniProt P37173); details: Compound concentration 1000.0 nM
[36] = target: Serine/threonine-protein kinase tousled-like 1 (Homo sapiens) (UniProt Q9UKI8); details: Compound concentration 1000.0 nM
Serine/threonine-protein kinase tousled-like 1 (Homo sapiens), sequence (Q9UKI8 whole entry): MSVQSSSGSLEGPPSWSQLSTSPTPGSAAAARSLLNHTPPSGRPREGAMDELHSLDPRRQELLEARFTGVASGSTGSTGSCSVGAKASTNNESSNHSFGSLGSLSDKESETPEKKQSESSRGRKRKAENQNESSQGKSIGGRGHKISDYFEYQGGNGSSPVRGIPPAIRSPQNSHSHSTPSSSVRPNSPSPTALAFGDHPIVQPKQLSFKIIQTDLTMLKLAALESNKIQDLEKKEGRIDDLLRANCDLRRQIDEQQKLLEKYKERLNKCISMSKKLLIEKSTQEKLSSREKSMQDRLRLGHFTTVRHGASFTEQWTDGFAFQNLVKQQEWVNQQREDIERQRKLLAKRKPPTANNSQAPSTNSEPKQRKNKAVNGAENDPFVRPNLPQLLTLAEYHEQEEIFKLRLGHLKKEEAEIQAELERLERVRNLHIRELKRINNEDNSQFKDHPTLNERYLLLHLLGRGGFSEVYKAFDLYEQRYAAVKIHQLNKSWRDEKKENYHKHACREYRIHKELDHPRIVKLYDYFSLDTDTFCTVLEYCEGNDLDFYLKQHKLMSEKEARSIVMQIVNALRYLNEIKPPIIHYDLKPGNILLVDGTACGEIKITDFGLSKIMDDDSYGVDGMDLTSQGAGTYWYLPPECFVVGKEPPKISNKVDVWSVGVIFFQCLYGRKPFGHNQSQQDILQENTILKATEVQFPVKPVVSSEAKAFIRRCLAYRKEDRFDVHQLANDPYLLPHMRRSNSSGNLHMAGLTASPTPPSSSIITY

[37] = target: Activated CDC42 kinase 1 (Homo sapiens) (UniProt Q07912); details: Compound concentration 1000.0 nM
[38] = target: BDNF/NT-3 growth factors receptor (Homo sapiens) (UniProt Q16620); details: Compound concentration 1000.0 nM
[39] = target: Serine/threonine-protein kinase WNK3 (Homo sapiens) (UniProt Q9BYP7); details: Compound concentration 1000.0 nM
[40] = target: Serine/threonine-protein kinase 32B (Homo sapiens) (UniProt Q9NY57); details: Compound concentration 1000.0 nM
[41] = target: Tyrosine-protein kinase ZAP-70 (Homo sapiens) (UniProt P43403); details: Compound concentration 1000.0 nM
[42] = target: D(4) dopamine receptor (Homo sapiens) (UniProt P21917); details: Compound concentration 10.0 uM
Rattus norvegicus = species on record: Rattus norvegicus; details: Compound concentration 10.0 uM

O=C1NC(c2ccccn2)Sc2ccccc21 (configuration not stated) [BTZO-4]
MEC1.5 [1]: > 1 µM | MEC2.0 [1]: > 10 µM | residual activity [2]: 88% | residual activity [3]: 100% | residual activity [4]: 100% | residual activity [5]: 100% | residual activity [6]: 100% | residual activity [7]: 82% | residual activity [8]: 100% | residual activity [9]: 71% | residual activity [10]: 90% | residual activity [11]: 90% | residual activity [12]: 100% | residual activity [13]: 100% | residual activity [14]: 100% | residual activity [15]: 63% | residual activity [16]: 83% | residual activity [17]: 82% | residual activity [18]: 100% | residual activity [19]: 75% | residual activity [20]: 86% | residual activity [21]: 78% | residual activity [22]: 99% | residual activity [23]: 75% | residual activity [24]: 83% | residual activity [25]: 91% | residual activity [26]: 59% | residual activity [27]: 100% | residual activity [28]: 100% | residual activity [29]: 100% | residual activity [30]: 81% | residual activity [31]: 87% | residual activity [32]: 94% | residual activity [33]: 100% | residual activity [34]: 75% | residual activity [35]: 85% | residual activity [36]: 94% | residual activity [37]: 100% | residual activity [38]: 87% | residual activity [39]: 100% | residual activity [40]: 100% | residual activity [41]: 90% | inhibition [42]: 7.31% | inhibition (Rattus norvegicus): 22.6%

O=c1nc(-c2ccccn2)sc2ccccc12 [BTZO-1]
MEC2.0 [1]: 0.82 µM | residual activity [2]: 91% | residual activity [3]: 91% | residual activity [4]: 98% | residual activity [5]: 100% | residual activity [6]: 100% | residual activity [7]: 90% | residual activity [8]: 100% | residual activity [9]: 84% | residual activity [10]: 75% | residual activity [11]: 96% | residual activity [12]: 92% | residual activity [13]: 100% | residual activity [14]: 100% | residual activity [15]: 78% | residual activity [16]: 81% | residual activity [17]: 100% | residual activity [18]: 97% | residual activity [19]: 61% | residual activity [20]: 92% | residual activity [21]: 84% | residual activity [22]: 100% | residual activity [23]: 89% | residual activity [24]: 83% | residual activity [25]: 100% | residual activity [26]: 76% | residual activity [27]: 100% | residual activity [28]: 98% | residual activity [29]: 100% | residual activity [30]: 92% | residual activity [31]: 99% | residual activity [32]: 100% | residual activity [33]: 100% | residual activity [34]: 82% | residual activity [35]: 100% | residual activity [36]: 93% | residual activity [37]: 100% | residual activity [38]: 96% | residual activity [39]: 100% | residual activity [40]: 100% | residual activity [41]: 100% | inhibition [42]: 10.1% | inhibition (Rattus norvegicus): 9.91%
